These results are taken from US10280159B2 (AbbVie Deutschland GmbH & Co. KG, priority 2015, dated 2019).

What all share (format): cell-based
The target in one assay is T1, human S1PR4 (Homo sapiens, UniProt O95977).
T1 construct: host or cells: CHO-K1
T1 sequence (O95977 1-384): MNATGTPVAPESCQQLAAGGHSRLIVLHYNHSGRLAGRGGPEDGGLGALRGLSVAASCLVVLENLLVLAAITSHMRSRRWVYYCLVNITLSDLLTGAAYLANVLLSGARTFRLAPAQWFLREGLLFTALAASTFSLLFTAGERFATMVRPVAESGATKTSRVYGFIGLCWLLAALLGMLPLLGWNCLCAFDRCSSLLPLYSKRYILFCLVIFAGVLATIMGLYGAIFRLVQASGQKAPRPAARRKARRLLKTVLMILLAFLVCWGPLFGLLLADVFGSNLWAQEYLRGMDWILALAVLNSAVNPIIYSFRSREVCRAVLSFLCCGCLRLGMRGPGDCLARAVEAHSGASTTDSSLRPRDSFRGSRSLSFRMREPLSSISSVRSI
The assay is described as follows: Intracellular Ca2+ release (FLIPR) agonist potency, S1P4. The note with it: recombinant CHO-K1 cells expressing human S1PR4, aequorin, Gq/i5; Calcium 5 FLIPR; read-out: S1P4 EC50. On the procedure:
(§1) Agonistic activity was measured using the method described below.
(§2) Intracellular Ca^2+ Release
(§3) Agonist potency and intrinsic activity was assessed by measurement of intracellular Ca^2+ release. Recombinant CHO-K1 cells (Euroscreen, Brussels, Belgium) expressing human S1PR5, S1PR1, S1PR3 or S1PR4 receptors, aequorin, and GTP binding protein Gq/i5 were cultured using a medium containing nutrient mixture F-12 Ham (Sigma-Aldrich) with 10% FBS, and 100 μg/mL gentamicin and equilibrated at 5% CO2.
(§4) Phospho-fingolimod was used as positive control. Antagonists were pre-incubated for 10 min with cells before addition of the agonist (phospho-fingolimod at EC80). Measurements were performed using a fluorometric imaging plate reader FLIPR®tetra (Molecular Devices). Agonist at the human S1P receptors were characterized by deducing EC50 (potency) values from a nonlinear fit to the measured fluorescence raw data after normalization to the reference agonist (phospho-fingolimod) curve.

In the next assay the target is T2, human S1PR5 (Homo sapiens, UniProt Q9H228).
T2 construct: host or cells: CHO-K1
Put plainly: Intracellular Ca2+ release (FLIPR) agonist potency, S1P5. The note with it: recombinant CHO-K1 cells expressing human S1PR5, aequorin, Gq/i5; Calcium 5 FLIPR; read-out: S1P5 EC50 range. On the procedure:
as §1, §2, §3, §4

Another assay concerns the target T3, human S1PR1 (Homo sapiens, UniProt P21453).
T3 construct: host or cells: CHO-K1
Put plainly: Intracellular Ca2+ release (FLIPR) agonist potency, S1P1. The note with it: recombinant CHO-K1 cells expressing human S1PR1, aequorin, Gq/i5; Calcium 5 FLIPR; read-out: S1P1 EC50. How it is done: as §1, §2, §3, §4

T3 sequence (P21453 whole entry): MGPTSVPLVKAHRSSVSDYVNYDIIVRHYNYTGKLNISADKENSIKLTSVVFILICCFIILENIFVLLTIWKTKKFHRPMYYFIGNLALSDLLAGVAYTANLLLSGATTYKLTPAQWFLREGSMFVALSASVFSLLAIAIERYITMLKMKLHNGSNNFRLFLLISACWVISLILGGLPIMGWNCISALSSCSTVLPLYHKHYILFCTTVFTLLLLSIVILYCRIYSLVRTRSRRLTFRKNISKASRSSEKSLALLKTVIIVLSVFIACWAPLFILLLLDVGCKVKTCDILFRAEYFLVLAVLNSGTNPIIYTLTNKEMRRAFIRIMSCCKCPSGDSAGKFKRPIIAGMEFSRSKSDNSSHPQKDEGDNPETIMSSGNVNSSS
T2 sequence (Q9H228 whole entry): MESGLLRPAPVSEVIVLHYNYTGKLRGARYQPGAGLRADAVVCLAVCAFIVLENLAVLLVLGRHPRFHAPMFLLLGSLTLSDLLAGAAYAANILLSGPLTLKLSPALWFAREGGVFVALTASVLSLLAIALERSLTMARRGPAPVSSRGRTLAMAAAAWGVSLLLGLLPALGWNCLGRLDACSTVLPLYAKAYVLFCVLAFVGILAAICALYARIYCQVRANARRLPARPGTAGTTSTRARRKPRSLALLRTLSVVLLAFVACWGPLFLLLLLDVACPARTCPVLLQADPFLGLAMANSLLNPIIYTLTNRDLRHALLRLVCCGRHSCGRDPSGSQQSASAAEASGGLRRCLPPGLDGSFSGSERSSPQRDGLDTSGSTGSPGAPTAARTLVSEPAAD

Take `O=C(O)C1CN(C2COc3cc(OCc4c(Cl)cccc4Cl)ccc3C2)C1` (single isomer, unassigned) [Compound 144, 1-(7-((2,6-dichlorobenzyl)oxy)chroman-3-yl)azetidine-3-carboxylic acid]: the EC50 was over 1000 nM at human S1PR4, 10 to 100 nM at human S1PR5 and over 1000 nM on human S1PR1.
`O=C(O)C1CN(C2COc3cc(OCc4c(Cl)cccc4Cl)ccc3C2)C1` (single isomer, unassigned) [Compound 145, 1-(7-((2,6-dichlorobenzyl)oxy)chroman-3-yl)azetidine-3-carboxylic acid]: the EC50 at human S1PR4 was over 1000 nM; on human S1PR5, 100 to 1000 nM; at human S1PR1, over 1000 nM.
Regarding `CCc1cccc(F)c1COc1ccc2c(c1)OCC(N1CC(C(=O)O)C1)C2` (single isomer, unassigned) [Compound 146, 1-(7-((2-ethyl-6-fluorobenzyl)oxy)chroman-3-yl)azetidine-3-carboxylic acid], the results for the EC50 at human S1PR4, on human S1PR5 and at human S1PR1 were under 1000 nM, under 10 nM and over 1000 nM, respectively.
For the compound `CCc1cccc(F)c1COc1ccc2c(c1)OCC(N1CC(C(=O)O)C1)C2` (single isomer, unassigned) [Compound 147, 1-(7-((2-ethyl-6-fluorobenzyl)oxy)chroman-3-yl)azetidine-3-carboxylic acid], the results for the EC50 at human S1PR4, at human S1PR5 and at human S1PR1 were under 1000 nM, under 10 nM and over 1000 nM, respectively.
Regarding `CCc1cccc(Cl)c1COc1ccc2c(c1)CCC(OCC(=O)O)C2` (single isomer, unassigned) [Compound 239], the values for the EC50 on human S1PR4, on human S1PR5 and on human S1PR1 were over 1000 nM, 100 to 1000 nM and over 1000 nM, respectively.
In the case of `CCc1cccc(Cl)c1COc1ccc2c(c1)CCC(OCC(=O)O)C2` (single isomer, unassigned) [Compound 240], the EC50 on human S1PR4 was over 1000 nM; at human S1PR5 it was 10 to 100 nM; on human S1PR1, over 1000 nM.
Take `O=C(O)C1CN(C2COc3cc(OCc4ccccc4F)ccc3C2)C1` (centres unmarked) [Compound 3, 1-(7-((2-fluorobenzyl)oxy)chroman-3-yl)azetidine-3-carboxylic acid]: the EC50 is over 1000 nM on human S1PR4, 1000 to 10000 nM at human S1PR5 and over 1000 nM on human S1PR1.
On to `O=C(O)C1CN(C2COc3cc(C#Cc4cccc(F)c4F)ccc3C2)C1` (centres unmarked) [Compound 26, 1-(7-((2,3-difluorophenyl)ethynyl)chroman-3-yl)azetidine-3-carboxylic acid], for which the EC50 at human S1PR4 is over 1000 nM; at human S1PR5, 10 to 100 nM; at human S1PR1, over 1000 nM.
As for `O=C(O)C12CC1CCN2C1CCc2cc(OCc3c(Cl)cccc3Cl)ccc2C1` (centres unmarked) [Compound 36, 2-(6-((2,6-dichlorobenzyl)oxy)-1,2,3,4-tetrahydronaphthalen-2-yl)-2-azabicyclo[3.1.0]hexane-1-carboxylic acid], the EC50 on human S1PR4 was over 1000 nM; at human S1PR5 it was 100 to 1000 nM; at human S1PR1, over 1000 nM.
As to `CC(C)C(NC1CCc2cc(OCc3c(Cl)cccc3Cl)ccc2C1)C(=O)O` (centres unmarked) [Compound 37, 2-((6-((2,6-dichlorobenzyl)oxy)-1,2,3,4-tetrahydronaphthalen-2-yl)amino)-3-methylbutanoic acid], the figures for the EC50 at human S1PR4, on human S1PR5 and at human S1PR1 were over 1000 nM, 100 to 1000 nM and over 1000 nM, respectively.
For `O=C(O)C1CN(C2COc3cc(C#CC4CCCCC4)ccc3C2)C1` (centres unmarked) [Compound 39, 1-(7-(cyclohexylethynyl)chroman-3-yl)azetidine-3-carboxylic acid], the EC50 is over 1000 nM at human S1PR4, 100 to 1000 nM on human S1PR5 and over 1000 nM on human S1PR1.
In the case of `Cc1cccc(C#Cc2ccc3c(c2)OCC(N2CC(C(=O)O)C2)C3)c1` (centres unmarked) [Compound 43, 1-(7-((3-(methyl)phenyl)ethynyl)chroman-3-yl)azetidine-3-carboxylic acid], the EC50 is under 1000 nM on human S1PR4, 100 to 1000 nM on human S1PR5 and over 1000 nM at human S1PR1.
On to `CCOc1ccc(C#Cc2ccc3c(c2)OCC(N2CC(C(=O)O)C2)C3)cc1` (centres unmarked) [Compound 45, 1-(7-((4-ethoxyphenyl)ethynyl)chroman-3-yl)azetidine-3-carboxylic acid], for which the EC50 was over 1000 nM at human S1PR4, 100 to 1000 nM at human S1PR5 and under 1000 nM on human S1PR1.
Turning to `O=C(O)C1CN(C2COc3cc(OCc4ccc(Cl)cc4)ccc3C2)C1` (centres unmarked) [Compound 46, 1-(7-((4-chlorobenzyl)oxy)chroman-3-yl)azetidine-3-carboxylic acid], the figures for the EC50 at human S1PR4, on human S1PR5 and at human S1PR1 were over 1000 nM, 1000 to 10000 nM and over 1000 nM, respectively.
As to `O=C(O)C1(CNC2COc3cc(OCc4c(Cl)cccc4Cl)ccc3C2)CC1` (centres unmarked) [Compound 49, 1-(((7-((2,6-dichlorobenzyl)oxy)chroman-3-yl)amino)methyl)cyclopropanecarboxylic acid], the EC50 is under 1000 nM on human S1PR4, 100 to 1000 nM at human S1PR5 and over 1000 nM on human S1PR1.
As to `O=C(O)C1CN(C2COc3cc(OCc4cccc(F)c4F)ccc3C2)C1` (centres unmarked) [Compound 51, 1-(7-((2,3-difluorobenzyl)oxy)chroman-3-yl)azetidine-3-carboxylic acid], the EC50 at human S1PR4 and at human S1PR1 was over 1000 nM each time.
Regarding `O=C(O)C1CN(C2COc3cc(OCc4c(F)cccc4F)ccc3C2)C1` (centres unmarked) [Compound 60, 1-(7-((2,6-difluorobenzyl)oxy)chroman-3-yl)azetidine-3-carboxylic acid], the EC50 on human S1PR4 and on human S1PR1 was over 1000 nM each time.
Take `O=C(O)COC1CCc2cc(OCc3cc(Cl)ccc3C(F)(F)F)ccc2C1` (centres unmarked) [Compound 153, 2-[6-[[5-chloro-2-(trifluoromethyl)phenyl]methoxy]tetralin-2-yl]oxyacetic acid]: on human S1PR1, the EC50 was over 1000 nM.
On to `O=C(O)CCOC1CCc2cc(OCc3ccccc3C(F)(F)F)ccc2C1` (centres unmarked) [Compound 178, 3-[6-[[2-(trifluoromethyl)phenyl]methoxy]tetralin-2-yl]oxypropanoic acid], for which the EC50 at human S1PR5 was 1000 to 10000 nM; on human S1PR1, over 1000 nM.
For `O=C(O)CCOC1CCc2cc(OCc3cccc(Cl)c3)ccc2C1` (centres unmarked) [Compound 187, 3-[6-[(3-chlorophenyl)methoxy]tetralin-2-yl]oxypropanoic acid], the EC50 at human S1PR4 and on human S1PR1 was over 1000 nM in each case.
For the compound `O=C(O)CCOC1CCc2cc(OCc3cccc(C(F)(F)F)c3)ccc2C1` (centres unmarked) [Compound 193, 3-[6-[[3-(trifluoromethyl)phenyl]methoxy]tetralin-2-yl]oxypropanoic acid], the EC50 at human S1PR4 is under 1000 nM; on human S1PR1 it was over 1000 nM.
Taken in the same sequence, the figures for `Cc1ccccc1COc1ccc2c(c1)CCC(OCC(=O)O)C2` (centres unmarked) [Compound 197, 2-[6-(o-tolylmethoxy)tetralin-2-yl]oxyacetic acid] were under 1000 nM and over 1000 nM.
Take `O=C(O)COC1CCc2cc(OCc3ccc(C(F)(F)F)cc3)ccc2C1` (centres unmarked) [Compound 202, 2-[6-[[4-(trifluoromethyl)phenyl]methoxy]tetralin-2-yl]oxyacetic acid]: the EC50 at human S1PR4 and at human S1PR1 was over 1000 nM each time.
Turning to `O=C(O)COC1CCc2cc(OCc3ccccc3F)ccc2C1` (centres unmarked) [Compound 215, 2-[6-[(2-fluorophenyl)methoxy]tetralin-2-yl]oxyacetic acid], the EC50 on human S1PR5 is 1000 to 10000 nM; at human S1PR1, over 1000 nM.

The EC50 is the concentration at which the effect is half-maximal.
